Measured values taken from patent US9981969B2, “Imidazole derivatives and methods of use thereof for improving the pharmacokinetics of a drug” (MERCK SHARP & DOHME CORP., priority 2013, dated 2018).
pIC50: −log10 of the molar value.

What was measured:
CYP2C19 = target: T1, CYP2C19 (Homo sapiens, UniProt P33261); assay: Cocktail assay for CYPs in human liver microsomes, mephenytoin 4′-hydroxylation (2C19); type: biochemical; conditions: 30 μM mephenytoin, 10 min at 37° C.
T1 construct: 0.1 mg/mL protein human liver microsomes (BD Gentest); tissue BD Gentest; host or cells: human liver microsomes
T1 sequence (P33261 whole entry): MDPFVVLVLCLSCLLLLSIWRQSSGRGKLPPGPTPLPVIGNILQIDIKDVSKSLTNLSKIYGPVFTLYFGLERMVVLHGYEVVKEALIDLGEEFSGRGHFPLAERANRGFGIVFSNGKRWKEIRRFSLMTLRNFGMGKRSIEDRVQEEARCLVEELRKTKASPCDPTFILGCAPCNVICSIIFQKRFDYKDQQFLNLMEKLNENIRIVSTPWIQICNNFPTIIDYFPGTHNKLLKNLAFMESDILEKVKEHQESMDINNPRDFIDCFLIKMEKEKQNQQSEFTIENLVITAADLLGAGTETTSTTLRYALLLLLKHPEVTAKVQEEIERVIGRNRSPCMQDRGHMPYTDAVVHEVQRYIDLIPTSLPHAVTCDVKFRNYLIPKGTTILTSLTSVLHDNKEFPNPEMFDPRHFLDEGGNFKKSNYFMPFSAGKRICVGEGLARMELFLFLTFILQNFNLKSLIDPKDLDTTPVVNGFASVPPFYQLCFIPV
Protocol: (§1) This assay was performed in a standard 96-well plate design. IC50 values were calculated from the percent inhibition observed for each test compound at 6 concentrations (for example, 0.0032, 0.016, 0.08, 0.4, 2 and 10 μM). The incubation substrate mix contains 10 μM phenacetin (1A2), 5 μM diclofenac (2C9), 30 μM mephenytoin (2C19), 5 μM dextromethorphan (2D6) and 2 μM midazolam (3A4), 0.1 mg/mL protein human liver microsomes (BD Gentest), 1 mM NAPDH, 3.3 mM MgCl2 and 100 mM potassium phosphate buffer (pH 7.4). The production of the metabolite of each probe substrate was determined after incubation for 10 min at 37° C. Quantitation of the metabolite peak area ratio against an internal standard (tolbutamide) was determined by LC/MS/MS analysis following acetonitrile treatment of the incubations.
(§2) Samples were analyzed in the MRM mode with a SCIEX API-4000 mass spectrometer (Applied Biosystems, Foster City, Calif.), with a Shimadzu LC-20 AD pump (Shimadzu corporation, Kyoto, JP) and a CTC PAL autosampler (Agilent Technologies, Switzerland). A Phenomenex, Luna, 5 μm, 100A, 2.00×30 mm HPLC column was used for the separation. The mobile phases were: (A) 0.1% formic acid in water and (B) 0.1% formic acid in acetonitrile. The binary gradient was as follows. AutoSampler: CTC PAL
(§3) The peak area ratio of the analyte to the internal standard was used to quantify the metabolite. The values of peak area ratios in the presence of test compound were compared to those of maximum or minimum controls and were expressed as % inhibition by interpolating between the maximum and minimum peak area ratios. Incubations with no inhibitor were defined as the maxima. The following equation was used to calculate the % inhibition: [1−[(X−Low control)/(High control−Low control)]]*100 For the IC50 calculation, SigmaPlot was used to plot the mean % inhibition versus the test compound concentrations and for non-linear regression analysis of the data. Depending on the range of data points defining the inhibition curve, the data may have been fit to the 4-parameter logistic equation.

CYP1A2 = target: T2, CYP1A2 (Homo sapiens, UniProt P05177); assay: Cocktail assay for CYPs in human liver microsomes, phenacetin O-deethylation (1A2); type: biochemical; conditions: 10 μM phenacetin, 10 min at 37° C.
T2 construct: 0.1 mg/mL protein human liver microsomes (BD Gentest); tissue BD Gentest; host or cells: human liver microsomes
T2 sequence (P05177 1-516): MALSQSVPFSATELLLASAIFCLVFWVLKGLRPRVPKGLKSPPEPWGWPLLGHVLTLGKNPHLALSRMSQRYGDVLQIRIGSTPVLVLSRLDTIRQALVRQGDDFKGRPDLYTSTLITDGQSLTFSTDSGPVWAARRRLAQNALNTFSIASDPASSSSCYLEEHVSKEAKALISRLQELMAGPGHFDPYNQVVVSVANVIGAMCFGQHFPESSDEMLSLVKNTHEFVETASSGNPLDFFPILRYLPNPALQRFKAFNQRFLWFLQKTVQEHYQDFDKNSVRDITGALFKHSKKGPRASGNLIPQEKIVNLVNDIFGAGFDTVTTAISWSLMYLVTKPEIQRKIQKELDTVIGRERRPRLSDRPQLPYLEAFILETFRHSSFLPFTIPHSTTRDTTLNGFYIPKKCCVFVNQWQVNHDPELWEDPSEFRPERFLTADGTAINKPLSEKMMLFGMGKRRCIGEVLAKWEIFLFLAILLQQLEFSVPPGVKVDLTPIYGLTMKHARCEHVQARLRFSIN
Protocol: as §1, §2, §3

CYP2C9 = target: T3, CYP2C9 (Homo sapiens, UniProt P11712); assay: Cocktail assay for CYPs in human liver microsomes, diclofenac 4′-hydroxylation (2C9); type: biochemical; conditions: 5 μM diclofenac, 10 min at 37° C.
T3 construct: 0.1 mg/mL protein human liver microsomes (BD Gentest); tissue BD Gentest; host or cells: human liver microsomes
T3 sequence (P11712 whole entry): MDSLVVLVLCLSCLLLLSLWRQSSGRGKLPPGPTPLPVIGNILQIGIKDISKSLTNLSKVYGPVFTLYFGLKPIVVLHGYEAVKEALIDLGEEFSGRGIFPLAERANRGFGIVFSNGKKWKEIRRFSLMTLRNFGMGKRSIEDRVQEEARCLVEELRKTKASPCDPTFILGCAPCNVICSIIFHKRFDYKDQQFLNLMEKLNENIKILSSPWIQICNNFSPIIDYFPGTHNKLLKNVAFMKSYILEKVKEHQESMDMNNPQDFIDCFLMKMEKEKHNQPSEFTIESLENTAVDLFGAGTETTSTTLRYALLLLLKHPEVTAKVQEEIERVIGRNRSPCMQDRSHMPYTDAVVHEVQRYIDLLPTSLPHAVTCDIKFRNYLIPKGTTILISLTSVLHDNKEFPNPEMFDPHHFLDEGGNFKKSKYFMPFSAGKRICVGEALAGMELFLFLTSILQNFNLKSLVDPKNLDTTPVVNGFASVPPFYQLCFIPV
Protocol: as §1, §2, §3

CYP3A4 = target: T4, CYP3A4 (Homo sapiens, UniProt P08684); assay: Cocktail assay for CYPs in human liver microsomes, midazolam 1′-hydroxylation (3A4); type: biochemical; conditions: 2 μM midazolam, 10 min at 37° C.
T4 construct: 0.1 mg/mL protein human liver microsomes (BD Gentest); tissue BD Gentest; host or cells: human liver microsomes
T4 sequence (P08684 whole entry): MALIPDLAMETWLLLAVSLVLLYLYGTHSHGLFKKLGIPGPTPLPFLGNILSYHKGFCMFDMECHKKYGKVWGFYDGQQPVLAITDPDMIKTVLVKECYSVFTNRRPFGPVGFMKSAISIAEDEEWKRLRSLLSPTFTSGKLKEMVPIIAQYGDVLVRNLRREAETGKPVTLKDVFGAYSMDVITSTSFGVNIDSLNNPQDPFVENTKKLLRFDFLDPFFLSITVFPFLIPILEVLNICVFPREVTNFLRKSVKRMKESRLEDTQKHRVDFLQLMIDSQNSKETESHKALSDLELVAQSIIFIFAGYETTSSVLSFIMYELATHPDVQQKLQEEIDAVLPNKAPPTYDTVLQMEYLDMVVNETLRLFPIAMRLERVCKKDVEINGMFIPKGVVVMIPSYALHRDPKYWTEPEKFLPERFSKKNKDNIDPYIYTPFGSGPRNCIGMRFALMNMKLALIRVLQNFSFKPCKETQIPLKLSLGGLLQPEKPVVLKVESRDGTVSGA
Protocol: as §1, §2, §3

human CYP11B2 = target: T5, human CYP11B2 (Homo sapiens, UniProt P19099); assay: IC50 vs CYP11B2 by measurement of aldosterone synthesis in V79 cells; type: cell-based; conditions: V79 cells expressing human CYP11B2, 750 nM DOC, aldosterone HTRF
T5 construct: expressed in transfected cells
T5 sequence (P19099 25-503): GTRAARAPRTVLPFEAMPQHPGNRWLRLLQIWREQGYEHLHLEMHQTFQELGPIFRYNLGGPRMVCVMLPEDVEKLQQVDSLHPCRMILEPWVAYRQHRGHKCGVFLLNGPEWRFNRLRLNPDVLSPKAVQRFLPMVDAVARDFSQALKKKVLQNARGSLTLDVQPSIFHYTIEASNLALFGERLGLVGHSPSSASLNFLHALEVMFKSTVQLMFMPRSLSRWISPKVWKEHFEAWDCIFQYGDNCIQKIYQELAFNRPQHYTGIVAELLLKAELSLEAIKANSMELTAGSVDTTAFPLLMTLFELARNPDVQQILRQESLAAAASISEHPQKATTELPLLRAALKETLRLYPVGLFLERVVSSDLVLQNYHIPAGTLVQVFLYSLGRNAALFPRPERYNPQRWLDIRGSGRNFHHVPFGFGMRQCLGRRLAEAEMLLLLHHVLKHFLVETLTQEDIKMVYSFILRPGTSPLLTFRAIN
Protocol: (§4) This assay was performed in a standard 384-well plate design using cultured V79 cells stably expressing human CYP11B1 or human CYP11B2. Test compounds at 10 concentrations (for example, 10000, 3333.3, 1111.1, 370.4, 123.5, 41.2, 13.7, 4.6, 1.5 and 0.5 nM) were added in 384-well plate after the cell-seeding procedure. The incubation substrate contains 1500 nM RSS for CYP11B1 assay/750 nM DOC for CYP11B2 assay. The Cortisol/Aldosterone production of cell culture supernatant was determined by Cortisol/Aldosterone HTRF kit after for about 15 hours incubation at RT (protect from light). IC50 (nM) values were calculated from the percent inhibition observed for each test compound at 10 concentrations.
(§5) The assay plate was read using Envision (Perkin Elmer, Waltham, Mass.) at 665 nm and 590 nm (using Filter Barcode of 217#, 205#; Mirror Barcode of 446#).
(§6) Data are analyzed using Assay Data Analyzer. All ratio data (665 nm/590 nm) are back calculated according to the standard curve, resulting in Cortisol/Aldosterone concentrations. IC50 (nM) values are reported as the Inflection Point (IP) of a four parameter fit of the titration data.
(§7) The following equation was used to calculate the % inhibition: % Activity=100×{1−(Sample_back calculated Cortisol/Aldosterone concentration−LC_back calculated Cortisol/Aldosterone concentration)/(HC_back calculated Cortisol/Aldosterone concentration−LC_back calculated Cortisol/Aldosterone concentration)} Curve Fitting: Four Parameter Logistic: […]

CYP2D6 = target: T6, CYP2D6 (Homo sapiens, UniProt P10635); assay: Cocktail assay for CYPs in human liver microsomes, dextromethorphan O-demethylation (2D6); type: biochemical; conditions: 5 μM dextromethorphan, 10 min at 37° C.
T6 construct: 0.1 mg/mL protein human liver microsomes (BD Gentest); tissue BD Gentest; host or cells: human liver microsomes
T6 sequence (P10635 whole entry): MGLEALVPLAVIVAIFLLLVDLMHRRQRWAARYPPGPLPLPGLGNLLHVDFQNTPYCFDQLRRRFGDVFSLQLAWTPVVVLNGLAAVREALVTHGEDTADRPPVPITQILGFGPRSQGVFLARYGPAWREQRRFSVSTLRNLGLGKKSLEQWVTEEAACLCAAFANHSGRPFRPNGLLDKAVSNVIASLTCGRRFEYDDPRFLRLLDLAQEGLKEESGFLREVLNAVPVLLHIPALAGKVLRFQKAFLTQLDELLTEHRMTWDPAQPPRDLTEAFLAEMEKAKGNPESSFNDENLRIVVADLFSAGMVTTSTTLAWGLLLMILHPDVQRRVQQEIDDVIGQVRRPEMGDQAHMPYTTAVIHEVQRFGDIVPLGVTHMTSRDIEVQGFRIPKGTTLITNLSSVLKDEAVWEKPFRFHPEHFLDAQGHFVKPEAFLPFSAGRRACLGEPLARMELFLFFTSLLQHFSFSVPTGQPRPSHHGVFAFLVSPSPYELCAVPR
Protocol: as §1, §2, §3

human CYP11B1 = target: T7, human CYP11B1 (Homo sapiens, UniProt P15538); assay: IC50 vs CYP11B1 by measurement of cortisol synthesis in V79 cells; type: cell-based; conditions: V79 cells expressing human CYP11B1, 1500 nM RSS, cortisol HTRF
T7 construct: expressed in transfected cells
T7 sequence (P15538 25-503): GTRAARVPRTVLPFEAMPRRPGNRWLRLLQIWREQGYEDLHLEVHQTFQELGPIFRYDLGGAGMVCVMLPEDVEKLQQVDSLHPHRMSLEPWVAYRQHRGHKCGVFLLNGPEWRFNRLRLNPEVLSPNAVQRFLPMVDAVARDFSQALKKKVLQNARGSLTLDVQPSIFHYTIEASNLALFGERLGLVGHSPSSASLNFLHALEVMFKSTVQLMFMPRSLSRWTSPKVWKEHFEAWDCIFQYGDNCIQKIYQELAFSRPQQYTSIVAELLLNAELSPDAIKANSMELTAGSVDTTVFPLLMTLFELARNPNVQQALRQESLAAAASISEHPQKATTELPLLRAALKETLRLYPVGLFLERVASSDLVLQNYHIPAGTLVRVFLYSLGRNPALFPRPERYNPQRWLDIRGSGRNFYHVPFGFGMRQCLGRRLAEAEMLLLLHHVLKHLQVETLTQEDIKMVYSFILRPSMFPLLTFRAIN
Protocol: as §4, §5, §6, §7

Row | SMILES | pIC50 (CYP2C19) | pIC50 (CYP1A2) | pIC50 (CYP2C9) | pIC50 (CYP3A4) | pIC50 (human CYP11B2) | pIC50 (CYP2D6) | pIC50 (human CYP11B1)
1 | C[C@@H](c1ccccc1-c1cc(F)cc(F)c1)n1cncc1C(=O)N1CCC2NCCO[C@@H]2C1 (some centres unmarked) [Compound 37] | < 5.00 | < 5.00 | < 5.00 | 8.01 | < 4.30 | < 5.00 | 4.70
2 | C[C@@H](c1ccccc1-c1ccc(F)cc1F)n1cncc1C(=O)N1CCC2NCCO[C@@H]2C1 (some centres unmarked) [Compound 38] | < 5.00 | < 5.00 | < 5.00 | 8.05 | < 4.30 | < 5.00 | 4.60
3 | C[C@@H](c1ccccc1-c1ccc(F)c(F)c1F)n1cncc1C(=O)N1CCC2NCCO[C@@H]2C1 (some centres unmarked) [Compound 39] | < 5.00 | < 5.00 | < 5.00 | 8.32 | < 4.30 | 5.02 | 4.84
4 | CCOc1ncccc1-c1ccccc1[C@H](C)n1cncc1C(=O)N1CCC2NCCO[C@@H]2C1 (some centres unmarked) [Compound 40] | < 5.00 | < 5.00 | < 5.00 | 8.02 | 4.59 | < 5.00 | 4.48
5 | C[C@@H](c1ccccc1-c1ccc(Cl)nc1)n1cncc1C(=O)N1CCC2NCCO[C@@H]2C1 (some centres unmarked) [Compound 41] | < 5.00 | < 5.00 | < 5.00 | 8.15 | < 4.30 | 5.13 | 4.37
6 | C[C@@H](c1ccccc1-c1ccccc1OC(F)(F)F)n1cncc1C(=O)N1CCC2NCCO[C@@H]2C1 (some centres unmarked) [Compound 42] | < 5.00 | < 5.00 | < 5.00 | 8.33 | < 4.30 | < 5.00 | 5.25
7 | C[C@@H](c1ccccc1-c1cccc2c1OCC2)n1cncc1C(=O)N1CCC2NCCO[C@@H]2C1 (some centres unmarked) [Compound 43] | < 5.00 | < 5.00 | < 5.00 | 8.18 | < 4.30 | 5.15 | 4.52
8 | COc1ccccc1-c1ccccc1[C@H](C)n1cncc1C(=O)N1CCC2NCCO[C@@H]2C1 (some centres unmarked) [Compound 44] | < 5.00 | < 5.00 | < 5.00 | 8.30 | < 4.30 | 5.23 | 4.91
